Consider 14 molecules from patent US20230124361A1, “SMALL MOLECULE STING ANTAGONISTS” (CURADEV PHARMA PVT. LTD., priority 2020, published 2023).

The target in this test is T1, STING (Homo sapiens, UniProt Q86WV6, G230A/H232R/R293Q/R71H).
T1 construct: host or cells: THP1-Dual cells (human THP-1 monocyte line with Lucia/SEAP reporters)
T1 sequence (Q86WV6 whole entry R71H/G230A/H232R/R293Q): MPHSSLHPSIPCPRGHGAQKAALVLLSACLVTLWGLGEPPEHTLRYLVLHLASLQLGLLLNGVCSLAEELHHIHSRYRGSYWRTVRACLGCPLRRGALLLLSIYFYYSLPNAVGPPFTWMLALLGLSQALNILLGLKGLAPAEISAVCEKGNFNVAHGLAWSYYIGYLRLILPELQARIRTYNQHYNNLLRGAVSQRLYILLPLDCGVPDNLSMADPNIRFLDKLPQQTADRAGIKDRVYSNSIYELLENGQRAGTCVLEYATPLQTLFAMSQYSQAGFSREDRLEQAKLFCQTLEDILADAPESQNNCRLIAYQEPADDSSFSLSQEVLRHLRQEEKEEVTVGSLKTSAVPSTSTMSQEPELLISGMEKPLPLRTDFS
In words: Reporter gene expression assay in THP1-Dual cells (IRF pathway Lucia luciferase, 2',3'-cGAMP stimulation). It counts as cell-based. The note with it: 10 min preincubation, 5 μM 2',3'-cGAMP, 20 hr, IRF reporter QUANTI-Luc, read-out: THP-1 (HAQ) Activity. The procedure:
Reporter Gene Expression Assay in THP-1 Cells
THP1-Dual™ cells (Invivogen) were derived from the human THP-1 monocyte cell line by stable integration of two inducible reporter constructs. As a result, THP1-Dual™ cells allow the simultaneous study of the IRF pathway, by assessing the activity of a secreted luciferase (Lucia) and the NF-κB pathway, by monitoring the activity of secreted SEAP. 5×10^4 THP1-Dual™ cells were seeded in 384-well plates in growth medium and preincubated with novel compounds for 10 minutes followed by stimulation with 5 μM 2′,3′-cGAMP. After 20 hr of stimulation the supernatant was removed and the IRF pathway reporter protein was readily measured in the cell culture supernatant using QUANTI-Luc™ (Invivogen), a luciferase detection reagent on a Spectramax i3X luminometer.
In the tables below, IC50 value ranges for exemplary compounds are given. The IC50 ranges are indicated as “A” for values less than or equal to 1 μM, “B” for values greater than 1 μM and less than or equal to 10 μM, and “C” for values greater than 10 μM.
For orientation: Reporter assays use an easily measured gene product as a stand-in for the process of interest.
On to `C[C@H]1c2ccc(NC(=O)Nc3ccc(F)cc3)cc2N(Cc2ccccc2)C(=O)N1C` [Example 38, (S)-1-(1-benzyl-3,4-dimethyl-2-oxo-1,2,3,4-tetrahydro-quinazolin-7-yl)-3-(4-fluorophenyl)urea], for which the IC50 was above 10 µM. Consider `CN(C(=O)Nc1ccc2cc[nH]c2c1)c1ccc2c(c1)N(Cc1ccccc1)C(=O)CS2` [Example 31, 1-(4-benzyl-3-oxo-3,4-dihydro-2H-benzo[b][1, 4]thiazin-6-yl)-3-(1H-indol-6-yl)-1-methylurea], for which the IC50 was in the range of 1 to 10 µM. For the molecule `O=C(c1ccccc1)N1CCSc2ccc(S(=O)(=O)NCc3ccco3)cc21` [Example 49, 4-benzoyl-N-(furan-2-ylmethyl)-3,4-dihydro-2H-benzo[b][1,4]thiazine-6-sulfonamide], the IC50 is above 10 µM.

In the case of `COc1ccc(F)c(CN2C(=O)CSc3cc(NC(=O)Nc4ccc5cc[nH]c5c4)ccc32)c1Cl` [Example 124, l-(4-(2-chloro-6-fluoro-3-methoxybenzyl)-3-oxo-3,4-dihydro-2H-benzo[b][1, 4]thiazin-7-yl)-3-(1H-indol-6-yl)urea], the IC50 was at most 1 µM. In the case of `O=C(Nc1ccc2c(c1)OCC(=O)N2Cc1ccc(C(=O)O)cn1)Nc1ccc2cc[nH]c2c1` [Example 118, 6-((7-(3-(1H-indol-6-yl)ureido)-3-oxo-2,3-dihydro-4H-benzo[b][1,4]oxazin-4-yl)methyl)nicotinic acid], the IC50 is above 10 µM. Then `O=C(Nc1ccc2c(c1)N(CC1CCCC1)CCS2)Nc1ccc2cc[nH]c2c1` [Example 67, 1-(4-(cyclopentylmethyl)-3,4-dihydro-2H-benzo[b][1, 4]thiazin-6-yl)-3-(1H-indol-6-yl)urea], with at most 1 µM. Regarding `O=C1CSc2ccc(-c3n[nH]c(-c4ccccc4)n3)cc2N1Cc1c(F)cccc1Cl` [Example 44, 4-(2-Chloro-6-fluorobenzyl)-6-(5-phenyl-1H-1,2,4-triazol-3-yl)-2H-benzo[b][1,4]thiazin-3(4H)-one], the IC50 is 1 to 10 µM. As to `COc1ccc(OC)c(CN2C(=O)COc3cc(NC(=O)Nc4ccc5cc[nH]c5c4)ccc32)c1` [Example 115, 1-(4-(2,5-dimethoxybenzyl)-3-oxo-3,4-dihydro-2H-benzo[b][1,4]oxazin-7-yl)-3-(1H-indol-6-yl)urea], the IC50 was 1 to 10 µM.

As for `O=C(Nc1ccc2c(c1)N(C(CO)c1ccccc1)CCO2)Nc1ccc2cc[nH]c2c1` (centres unmarked) [Example 85, 1-(4-(2-Hydroxy-1-phenylethyl)-3,4-dihydro-2H-benzo[b][1,4]oxazin-6-yl)-3-(1H-indol-6-yl)urea], the IC50 lay in the range of 1 to 10 µM. On to `O=C1CSc2ccc(-c3nc(-c4ccccc4)co3)cc2N1Cc1c(F)cccc1Cl` [Example 46, 4-(2-Chloro-6-fluorobenzyl)-6-(4-phenyloxazol-2-yl)-2H-benzo[b][1,4]thiazin-3(4H)-one], for which the IC50 was above 10 µM.

For the molecule `Cc1cc2cc[nH]c2cc1NC(=O)Nc1ccc2c(c1)OCC(=O)N2Cc1ccccc1` [Example 91, 1-(4-benzyl-3-oxo-3,4-dihydro-2H-benzo[b][1, 4]oxazin-7-yl)-3-(5-methyl-1H-indol-6-yl)urea], the IC50 is above 10 µM. Turning to `O=C(Nc1ccc2c(c1)N(c1ccccc1)C(=O)CO2)Nc1ccc2cc[nH]c2c1` [Example 183, 1-(1H-indol-6-yl)-3-(3-oxo-4-phenyl-3,4-dihydro-2H-benzo[b][1,4]oxazin-6-yl)urea], the IC50 is above 10 µM. Regarding `O=C(Nc1ccc2c(c1)OCC(=O)N2Cc1ccccc1)N1CCc2ccccc2C1` [Example 141, N-(4-benzyl-3-oxo-3,4-dihydro-2H-benzo[b][1, 4]oxazin-7-yl)-3,4-dihydro-isoquinoline-2(1H)-carboxamide], the IC50 lay within 1 to 10 µM. In the case of `N#CC1COc2ccc(NC(=O)Nc3ccc4cc[nH]c4c3)cc2N1Cc1ccccc1` (centres unmarked) [Example 81, 1-(4-Benzyl-3-cyano-3,4-dihydro-2H-benzo[b][1,4]oxazin-6-yl)-3-(1H-indol-6-yl)urea], the IC50 was 1 to 10 µM.
